Experimental data as given in patent US7563766B2, “Methods and compositions for the promotion of a hair growth utilizing actin binding peptides” (The United States of America as represented by the …, priority 2002, dated 2009).
Entries after “also recorded” stand apart in the source; their conditions may differ. Ends that are not written are not given here.

Columns and labels:
[1] = system: male and female androgenetic patients; conditions: human, in vivo; cited from earlier work
hair follicles = assay: Topical thymosin β4 or T-3 on shaved aged BALB/c mice; assay type: in vivo, mouse; conditions: 5 μg/50 μl in water
Protocol: These mice are considered highly aged as they are alive beyond the normal mouse life expectancy. […] The mice were shaved and treated as described above with thymosin β4 at the time of shaving and 48 hours later. At day 7, the skin was harvested and examined histologically, as described above in Example 1.
The T-3 fragment was produced using an automated peptide synthesizer, as is well known in the art.
The synthetic T-3 peptide was applied in a water solution/mixture at a concentration/dose of 5 μg/50 μl. […] Thus, a fragment of thymosin β4 comprising these amino acids is useful in hair regeneration compositions.

chick aortic arches = assay: Chick aortic arch vessel sprouting assay; assay type: cell-based; design: key to Sprouting: − = no activity; +/− = low activity; + = active; ++ = high activity; conditions: for effect of actin on thymosin β4-mediated sprouting: 5-50 nM
Protocol: Chick aortic arch assay—The aortic arch of 13-day-old chick embryos was removed and placed in RPMI 1640. After removal of surrounding connective tissue, transverse sections of the arch were made (1 mm). The resulting aortic rings were carefully attached to the bottom of a 48-well plate, one ring per well, with 20-30 μl of Matrigel (Collaborative Biomedical Products). The rings were placed so that the lumen of each ring could be seen. More Matrigel was added onto the top of the rings to seal them in place. A 100 μl volume of human endothelial—SFM basal growth medium (Invitrogen) containing 1% penicillin streptomycin was added to each well. Thymosin β4, peptide fragments, and exogenous actin (Sigma Chemical Co.) were added to wells in serum-free medium, bringing the final volume of each well to 400 μl. ECGS (200 μg/ml) was used as a positive control. The plates were incubated for 24 hr at 37° C. Rings were fixed and stained with Diff-Quik solution II. Sprouting was scored in a blind assessment by an observer using 10× magnification on an Olympus microscope. Six wells were used for each condition tested, and each assay was done three times.

[2] = system: human umbilical vein endothelial cells; assay: HUVEC migration, Boyden chamber assay; assay type: cell-based
Protocol: (§1) Cells—HUVECs were isolated and used at passages 2-5. Grant et al., J. Cell Sci. 108:3685-3694 (1995). The cells were cultured in RPMI 1640 (Invitrogen, Carlsbad, Calif.) supplemented with 20% bovine calf serum (Hyclone Laboratories, Logan, Utah), 200 μg/ml of endothelial cell growth supplement (ECGS) (Collaborative Biomedical Products, Bedford, Mass.), 0.8 U/ml heparin sodium (Fisher Scientific, Pittsburgh, Pa.), penicillin/streptomycin (Invitrogen, Carlsbad, Calif.), 10 μg/ml gentamycin (Invitrogen, Carlsbad, Calif.), and 1% fungizone (Invitrogen, Carlsbad, Calif.).
Boyden chamber assay—HUVEC migration assays were conducted in a 48-well micro-chemotaxis chamber (Neuro Probe Inc., Cabin John, Md.) as previously described in Salcedo et al., J. Immunol. 166:7571-7578 (2001). Briefly, PVP-free polycarbonate membranes with 8 μm pores were coated with 50 μg/ml of rat tail collagen (BD Biosciences, Bedford, Mass.) in RPMI 1640 that contained 25 mM HEPES (Invitrogen, Carlsbad, Calif.) at 4° C. overnight. The membranes were dried at least 1 hr prior to use. HUVECs were serum-starved for 2 hr, harvested using Versene (Invitrogen, Carlsbad, Calif.), and resuspended in binding medium that contained RPMI 1640 with 1% BSA and 25 mM HEPES. The lower wells of the chamber were loaded with 1, 10, 100, and 1000 ng/ml of thymosin β4 or peptide fragments that were diluted in binding medium. Basic fibroblast growth factor (bFGF) (200 ng/ml) was used as a positive control. Cells were added to the upper portion of the chamber at a concentration of 50,000 cells per well. The chambers were incubated at 37° C. for 4 hr. The filters were fixed and stained using Diff-Quik (VWR, Bridgeport, N.J.). The cells that successfully migrated through the pores of the membrane were manually quantitated using a CK-2 Olympus microscope at 10× magnification. Each condition was assayed in triplicate, and the assay was repeated twice.

HUVEC = HUVEC cell adhesion assay; assay type: cell-based, human
Protocol: as §1
Cell adhesion—In order to determine which ions are needed for HUVEC adhesion, Laminin-1 peptide (25 ng in 50 μl) and two test concentrations of Tβ4 (100 ng and 500 ng in 50 μl) in 0.1 M carbonate buffer, pH 9.4, were bound to the bottom of U-bottom 96-well plates overnight at 4° C. Wells were then washed twice with PBS and blocked with 150 μl of 3% BSA in PBS (Sigma Chemical Co., St. Louis, Mo.) at room temperature for 30 min. […] The remaining cells were stained with 0.2% crystal violet in 20% methanol, washed in water to remove excess stain, dried overnight at 37° C., and lysed with 10% SDS for 10 min, and the plate OD was read at 600 nm. (Molecular Devices precision microplate reader). […]

Molecule	side effects [1]	hair follicle development vs water alone (hair follicles)	vessel sprouting, in words (chick aortic arches)	Sprouting (chick aortic arches; Table 2 score)	activity in the assays (endothelial cell migration and vessel sprouting) (chick aortic arches; statement covers both migration and sprouting assays)	endothelial cell migration, in words [2]	effect of actin on ECGS-mediated vessel sprouting (chick aortic arches; exogenous actin added)	effect of actin on thymosin β4-mediated sprouting (chick aortic arches; exogenous actin added)	effect of actin on thymosin β4-mediated sprouting (chick aortic arches; exogenous actin added, listed as soluble actin)	effect of actin on laminin-1-mediated adhesion (HUVEC; control)	effect of actin on cell adhesion to thymosin β4 (HUVEC; soluble actin added, 5-50 nM)
Nc1cc(N2CCCCC2)nc(N)[n+]1[O-] [minoxidil]	scalp irritation and increased facial hair	–	–	–	–	–	–	–	–	–	–
LKKTETQ [Peptide T-3]	–	increased hair follicle development	fully active	++	generally highly active	fully active	–	–	–	–	–
actin [reference compound]	–	–	angiogenic activity	–	–	–	did not inhibit	significantly inhibited	inhibited	no effect	inhibited; also recorded: blocked adhesion
